The values that follow are results of earlier work, collected in patent US20180203025A1, “HDL THERAPY MARKERS” (Cerenis Therapeutics Holding SA, priority 2014, published 2018).

Like-named read-outs stand apart in the source and are kept apart here.

For data set [1] the following is noted: associated to statin; cited from earlier work.
The conditions of data set [2]: compared to atorvastatin; cited from earlier work.
The conditions of data set [3]: added to 80 mg atorvastatin, cited from earlier work.
The conditions of data set [4]: ACS patients, cited from earlier work.

In the case of `COc1cc(F)c(C(C)C)cc1-c1ccc(C(F)(F)F)cc1CN1C(=O)O[C@H](c2cc(C(F)(F)F)cc(C(F)(F)F)c2)[C@@H]1C` [anacetrapib], the “further decrease of LDL-cholesterol” value in data set [1] is on record as “about 40%”. In data set [2], the HDL-cholesterol increase entry is on record as “about 140%” and the LDL-cholesterol lowering was 40%.
As to `CCOC(=O)N1c2ccc(C(F)(F)F)cc2[C@@H](N(Cc2cc(C(F)(F)F)cc(C(F)(F)F)c2)C(=O)OC)C[C@H]1CC` [torcetrapib], in data set [3] (compared to Atorvastatin alone), the HDL-cholesterol increase is 80% and the LDL-cholesterol decrease is 25%. Besides, in data set [3] (15 067 patients), the mortality and morbidity entry was “increase of the mortality and morbidity”. Also, in data set [1], the “further decrease of LDL-cholesterol” value is reported as “about 40%”.
Take `CCC(CC)CC1(C(=O)Nc2ccccc2SC(=O)C(C)C)CCCCC1` [dalcetrapib]: the LDL-cholesterol result in data set [1] is “remains unchanged”. For the same compound, in data set [4], the ApoA-I increase is reported as 18%, the HDL-cholesterol increase result was “about 30%” and the LDL-cholesterol result is “no changes in LDL-cholesterol”. The “clinical benefit compared to placebo” value in data set [4] (interim analysis) is “no benefit”.
As to `Cc1cc(C)c2c(c1)[C@@H](N(Cc1cc(C(F)(F)F)cc(C(F)(F)F)c1)c1nnn(C)n1)CCCN2C[C@H]1CC[C@H](C(=O)O)CC1` [evacetrapib], the “further decrease of LDL-cholesterol” value in data set [1] is reported as “about 40%”.
